According to patent US8366935B2, “Phyllanthus extract” (Phytrix Inc., priority 2008, dated 2013):

Target: T1, gp120 (Human immunodeficiency virus type 1 group M subtype B, UniProt P03375)
T1 construct: loaded with 25 μl of 6 mg/ml of gp120 (25 μM) in PBS pH 7.2
Assay: biochemical
Format: binding, HIV
Protocol: If needed, experiments were repeated within a smaller concentration range (i.e., 10 trials from 0.01 to 0.10 mmol). A total volume of either 50 μl was used in each analysis. Analytes were loaded in the opposite side of the membrane and equilibrium was obtained after incubation of 12 hrs at 23° C. The association constants were determined by non-linear regression analysis. Concentrations of compounds analysed were determined by HPLC analysis by comparison against an internal control (diethyl-7-dimethylaminocoumarineacetamide). HPLC controls were run with an equimolar amount of control and analyte. The relative concentrations of each analyte were determined at both sides of the membrane. […] Each data point was recollected after regeneration of the dialysis setup by exposing the non-protein containing face of the membrane to 5 ml of PBS pH 7.2 twice for 4 to 10 hrs at 23° C.

Row | SMILES | Kd [nM]
1 | O=C(O[C@@H]1O[C@@H]2COC(=O)c3cc(O)c(O)c(O)c3-c3c(cc(O)c(O)c3O)C(=O)O[C@H]([C@H]1O)[C@@H]2O)c1cc(O)c(O)c(O)c1 [Corilagin] | 120
2 | O=C(O)c1cc(O)c(O)c(O)c1 [Gallic acid] | ≥ 100000
3 | O=C1O[C@H]2[C@@H]3OC(=O)c4cc(O)c(O)c(O)c4-c4c(cc(O)c(O)c4O)C(=O)OC[C@H]2O[C@@H](OC(=O)c2cc(O)c(O)c(O)c2)[C@@H]3OC(=O)c2cc(O)c(O)c3c2[C@@H]2C1=CC(=O)[C@](O)(O3)C2(O)O [Geraniin] | 76
4 | Cc1c(O)c(O)cc2c1C(/C(=C/C(=O)O)C(=O)OC1C3COC(=O)c4cc(O)c(O)c(O)c4-c4c(cc(O)c(O)c4O)C(=O)OC1C(O)C(OC(=O)c1cc(O)c(O)c(O)c1)O3)C(C(=O)O)OC2=O (stereo not shown) [Repandusinic acid] | 22
